Converted amounts (≈) assume the structure as drawn.
Columns and labels:
[1] = Protein binding in mouse plasma; assay type: ADME, cell-free; conditions: read-out: PPB (converted)
[2] = Protein binding in human plasma; assay type: ADME, cell-free; conditions: read-out: PPB (converted)
[3] = in vivo; conditions: CD1, mouse, po, 10 mg/kg
[4] = in vitro; conditions: mouse
Description: Half life in mouse liver microsomes

[5] = in vitro; conditions: dog, MDCK-MDR1
Description: Permeability across apical to basolateral side in MDCK cells expressing MDR1

[6] = physchem; conditions: buffer, pH 7.4
Description: Solubility of the compound at pH 7.4

fraction unbound [1] | fraction unbound [2] | AUC(0-t) at 6 h [3] | half-life ([4]; liver microsomes) | Papp A→B [5] | solubility [6] | Structure (SMILES) | half-life ([4]; microsomes)
0.14 | 0.12 | 11400 ng·h/mL | > 3.33 h | 6 ×10⁻⁶ cm/s | 12 µg/mL (≈ 26.6 µM) | CCOc1ccc(S(=O)(=O)CC)cc1-c1cn(C)c(=O)c2ccc(-c3cnn(C)c3)cc12 | –
– | – | – | – | – | – | CCNC(=O)C[C@@H]1N=C(c2ccc(Cl)cc2)c2cc(OC)ccc2-n2c(C)nnc21 [MOLIBRESIB] | 1.58 h

Reference: ChEMBL document CHEMBL4219230, “Design, synthesis and biological evaluation of novel 4-phenylisoquinolinone BET bromodomain inhibitors” (Bioorg Med Chem Lett, 2018)
